Where a name gives a salt, the structure may show the parent alone.
Legend:
TNF = experiment: Cytokine Induction in Human Cells: tumor necrosis factor (TNF) secreted by PBMCs, ELISA; assay type: cell-based; settings: 18 to 24 hours
Text: (§1) An in vitro human blood cell system was used to assess cytokine induction by compounds of the invention. Activity is based on the measurement of interferon and tumor necrosis factor (ℑ) (IFN and TNF, respectively) secreted into culture media as described by Testerman et. al. In “Cytokine Induction by the Immunomodulators Imiquimod and S-27609”, Journal of Leukocyte Biology, 58, 365-372 (September, 1995). Blood Cell Preparation for Culture
(§2) Whole blood is collected by venipuncture into EDTA vacutainer tubes from healthy human donors. Peripheral blood mononuclear cells (PBMCs) are separated from whole blood by Histopaque®-1077 (Sigma Chemicals, St. Louis, Mo.) density gradient centrifugation. The PBMCs are suspended at 1.5-2×10^6 cells/mL in RPMI 1640 medium containing 10% fetal bovine serum, 2 mM L-glutamine and 1% penicillin/streptomycin solution (RPMI complete). 1 mL portions of PBMC suspension are added to 24 well flat bottom sterile tissue culture plates.
(§3) The compounds are solubilized in dimethyl sulfoxide (DMSO). The DMSO concentration should not exceed a final concentration of 1% for addition to the culture wells. The compounds are generally tested in a concentration range of from 0.1 to 100 μM.
(§4) The solution of test compound is added to the wells containing 1 mL of PBMCs in media. The plates are covered with plastic lids, mixed gently and then incubated for 18 to 24 hours at 37° C. with a 5% carbon dioxide atmosphere.
(§5) Following incubation the plates are centrifuged for 5-10 minutes at 1000 rpm (˜200×g) at 4° C. The cell culture supernatant is removed with a sterile polypropylene pipet and transferred to a 2 mL sterile cryotube. Samples are maintained at −70° C. until analysis.
Tumor necrosis factor (ℑ) (TNF) concentration is determined using an ELISA kit available from Genzyme, Cambridge, Mass. The results are expressed as pg/mL.

IFN = experiment: Cytokine Induction in Human Cells: interferon (IFN) secreted by PBMCs, A549/encephalomyocarditis bioassay; assay type: cell-based; settings: 18 to 24 hours
Text: as §1, §2, §3, §4, §5
Interferon is determined by bioassay using A549 human lung carcinoma cells challenged with encephalomyocarditis. The details of the bioassay method have been described by G. L. Brennan and L. H. Kronenberg in “Automated Bioassay of Interferons in Micro-test Plates”, Biotechniques, June/July 78, 1983, incorporated herein by reference. Briefly stated the method is as follows: A549 cells are incubated with samples and standard interferon dilutions at 37° C. for 24 hours. The incubated cells are then infected with an inoculum of encephalomyocarditis virus. The infected cells are incubated for an additional 24 hours at 37° C. before quantifying for viral cytopathic effect. The viral cytopathic effect is quantified by staining followed by visual scoring of the plates. Results are expressed as alpha reference units/mL based on the value obtained for NIH Human Leukocyte IFN standard.
Also: call rule not given here.

Row | SMILES | TNF induction (TNF; Dose Concentration 0.1 μM) | TNF induction (TNF; Dose Concentration 1.0 μM) | TNF induction (TNF; Dose Concentration 10.0 μM) | TNF induction (TNF; Dose Concentration 100.0 μM) | IFN induction (IFN; Dose Concentration 0.1 μM) | IFN induction (IFN; Dose Concentration 1.0 μM) | IFN induction (IFN; Dose Concentration 10.0 μM) | IFN induction (IFN; Dose Concentration 100.0 μM)
1 | CCCCc1nc2c(N)nc3cccnc3c2n1CCCCNC(=O)Nc1ccccc1 [Example 47, N-[4-(4-Amino-2-butyl-1H-imidazo[4,5-c][1,5]naphthyridin-1-yl)butyl]-N′-phenylurea] | − | + | + | + | − | + | + | ±
2 | CCCCc1nc2c(N)nc3cccnc3c2n1CCCCNC(=O)NC1CCCCC1 [Example 48, N-[4-(4-Amino-2-butyl-1H-imidazo[4,5-c][1,5]naphthyridin-1-yl)butyl]-N′-cyclohexylurea] | − | + | + | − | + | + | + | −
3 | CCCCNC(=O)NCCCCn1c(CCCC)nc2c(N)nc3cccnc3c21 [Example 49, N-[4-(4-Amino-2-butyl-1H-imidazo[4,5-c][1,5]naphthyridin-1-yl)butyl]-N′-butylurea] | − | + | + | + | + | + | + | +
4 | CCCCc1nc2c(N)nc3cccnc3c2n1CCCCNC(=O)Oc1ccccc1 [Example 50, Phenyl N-[4-(4-Amino-2-butyl-1H-imidazo[4,5-c][1,5]naphthyridin-1-yl)butyl]carbamate] |  | + | + | − |  | + | + | −
5 | CCCCc1nc2c(N)nc3cccnc3c2n1CCCCNC(=O)c1ccco1 [Example 51, N-[4-(4-Amino-2-butyl-1H-imidazo[4,5-c][1,5]naphthyridin-1-yl)butyl]-2-furamide] |  | + | + | − |  | + | + | +
6 | CCCCc1nc2c(N)nc3cccnc3c2n1CCCCNC(=O)c1ccccc1 [Example 52, N-[4-(4-Amino-2-butyl-1H-imidazo[4,5-c][1,5]naphthyridin-1-yl)butyl]benzamide] |  | + | + | − |  | + | + | −
7 | CCCCc1nc2c(N)nc3cccnc3c2n1CCCCNC(=O)NCc1ccccc1 [Example 53, N-[4-(4-Amino-2-butyl-1H-imidazo[4,5-c][1,5]naphthyridin-1-yl)butyl]-N′-benzylurea] | − | + | + | − | + | + | + | +
8 | CCCCc1nc2c(N)nc3cccnc3c2n1CCCCNC(=O)c1cccnc1 [Example 54, N^3-[4-(4-Amino-2-butyl-1H-imidazo[4,5-c][1,5]naphthyridin-1-yl)butyl]nicotinamide] |  | + | + | + |  | + | + | +
9 | CCCCc1nc2c(N)nc3cccnc3c2n1CCCCNC(=O)Cc1ccccc1 [Example 55, N-[4-(4-Amino-2-butyl-1H-imidazo[4,5-c][1,5]naphthyridin-1-yl)butyl]phenylaceatamide] |  | + | + | − |  | + | + | +
10 | CCCCc1nc2c(N)nc3cccnc3c2n1CCCCNC(=O)OCc1ccccc1 [Example 56, Benzyl N-[4-(4-Amino-2-butyl-1H-imidazo[4,5-c][1,5]naphthyridin-1-yl)butyl]carbamate] | − | − | + | − | − | + | + | −
11 | CCCCc1nc2c(N)nc3cccnc3c2n1CCCCNC(=O)OCC1c2ccccc2-c2ccccc21 [Example 57, 9H-9-Fluorenylmethyl N-[4-(4-Amino-2-butyl-1H-imidazo[4,5-c][1,5]naphthyridin-1-yl)butyl]carbamate] | − | − | + | + | − | + | + | +
12 | CCCCc1nc2c(N)nc3cccnc3c2n1CCCCNC(=O)OCC [Example 58, Ethyl N-[4-(4-Amino-2-butyl-1H-imidazo[4,5-c][1,5]naphthyridin-1-yl)butyl]carbamate] | − | + | + | − | + | + | + | −
13 | CCCCc1nc2c(N)nc3cccnc3c2n1CCNC(=O)CCc1ccccc1 [Example 96, N^1-[2-(4-Amino-2-butyl-1H-imidazo[4,5-c][1,5]naphthyridin-1-yl)ethyl]-3-phenylpropanamide Hydrochloride] | − | − | + | + | − | ± | + | +
14 | CCCCc1nc2c(N)nc3cccnc3c2n1CCNC(=O)C(N)CC(C)C (centres unmarked) [Example 102, N^1-[2-(4-Amino-2-butyl-1H-imidazo[4,5-c][1,5]naphthyridin-1-yl)ethyl]-2-amino-4-methylpentanamide] | + | + | + | + | + | + | + | +
15 | CCCCc1nc2c(N)nc3cccnc3c2n1CCCCNC(=O)CCCCn1cnc2c1c(=O)n(C)c(=O)n2C [Example 105, N^1-[4-(4-Amino-2-butyl-1H-imidazo[4,5-c][1,5]naphthyridin-1-yl)butyl]-5-(1,3-dimethyl-2,6-oxo-2,3,6,7-tetrahydro-1H-purinyl)pentamide] | − | − | + | + | + | + | + | +
16 | CCCCc1nc2c(N)nc3cccnc3c2n1CCCCNC(=O)c1ccc(N2CCOCC2)nc1 [Example 106, N^1-[4(4-Amino-2-butyl-1H-imidazo[4,5-c][1,5]naphthyridin-1-yl)butyl]-6-morpholinonicotinamide] | − | + | + | − | + | + | + | −
17 | CCCCc1nc2c(N)nc3cccnc3c2n1CCCCNC(=O)c1ccc2ncccc2c1 [Example 107, N^1-[4-(4-Amino-2-butyl-1H-imidazo[4,5-c][1,5]naphthyridin-1-yl)butyl]-6-quinolinecarboxamide] | − | + | + | − | + | + | + | −
18 | CCCCc1nc2c(N)nc3cccnc3c2n1CCCCNC(=O)c1ccc(C(=O)c2ccccc2)cc1 [Example 113, N^1-[4-(4-Amino-2-butyl-1H-imidazo[4,5-c][1,5]naphthyridin-1-yl)butyl]-4-benzoylbenzamide] | − | + | + | + | − | + | + | +

From US7678918B2, “Intermediates for imidazonaphthyridines” (3M Innovative Properties Company, priority 1997, dated 2010)
